Test results taken from patent US20250381179A1, “CHROMAN-BASED COMPOUNDS FOR TREATING CANCER” (priority 2024, published 2025).

Experiment: Phase 1 study: safety and tolerability (TEAEs, NCI CTCAE v5.0)
Method: The study employed an open-label, 3+3 design, with the option of adding backfill patients to each cohort cleared and deemed safe. […] Tumor responses were assessed every 2 cycles using RECIST v1.1 criteria. […] The study also involves an ongoing dose escalation study where participants receive 100 mg, 200 mg, 300 mg, 400 mg, and 600 mg once daily (QD) dose levels.
Safety was assessed through the analysis of the reported incidence of treatment-emergent AEs. Treatment-emergent AEs are those with an onset on or after the initiation of therapy and will be graded according to NCI CTCAE Version 5.0. Other safety endpoints, including laboratory results, vital signs, and ECG findings, were summarized for all patients in the Safety set.

O=C1CC[C@H](N2Cc3cc(N4CCN(CC5CCN(c6ccc([C@@H]7c8ccc(O)cc8OC[C@@H]7c7ccccc7)cc6F)CC5)CC4)ccc3C2=O)C(=O)N1 [compound (1-g), (S)-3-(5-(4-((1-(2-fluoro-4-((3S,4R)-7-hydroxy-3-phenylchroman-4-yl)phenyl)piperidin-4-yl)methyl)piperazin-1-yl)-1-oxoisoindolin-2-yl)piperidine-2,6-dione]
2 (16.7) n (%): TEAE: Arthralgia (200 mg QD (N = 12)) | TEAE: Fatigue (200 mg QD (N = 12))
4 (100) n (%): Patients with Any TEAE (100 mg QD (N = 4))
2 (50.0) n (%): Patients with Any Compound (1-g) related TEAE (100 mg QD (N = 4))
1 (8.3) n (%): TEAE: Abdominal Pain (200 mg QD (N = 12)) | TEAE: Adrenal Insufficiency (200 mg QD (N = 12)) | TEAE: Anaemia (200 mg QD (N = 12)) | TEAE: Axillary Vein Thrombosis (200 mg QD (N = 12)) | TEAE: Back Pain (200 mg QD (N = 12)) | TEAE: Breast Pain (200 mg QD (N = 12)) | TEAE: Constipation (200 mg QD (N = 12)) | TEAE: Cough (200 mg QD (N = 12)) | TEAE: Dehydration (200 mg QD (N = 12)) | TEAE: Dyspnoea (200 mg QD (N = 12)) | TEAE: Dysuria (200 mg QD (N = 12)) | TEAE: Fall (200 mg QD (N = 12)) | TEAE: Fracture (200 mg QD (N = 12)) | TEAE: Hot Flush (200 mg QD (N = 12)) | TEAE: Hyperglycaemia (200 mg QD (N = 12)) | TEAE: Hyperhidrosis (200 mg QD (N = 12)) | TEAE: Hypokalaemia (200 mg QD (N = 12)) | TEAE: Influenza Like Illness (200 mg QD (N = 12)) | TEAE: Insomnia (200 mg QD (N = 12)) | TEAE: Lower Respiratory Tract Congestion (200 mg QD (N = 12)) | TEAE: Lymphocyte Count Decreased (200 mg QD (N = 12)) | TEAE: Muscular Weakness (200 mg QD (N = 12)) | TEAE: Musculoskeletal Stiffness (200 mg QD (N = 12)) | TEAE: Nasal Congestion (200 mg QD (N = 12)) | TEAE: Nausea (200 mg QD (N = 12)) | TEAE: Neutrophil Count Decreased (200 mg QD (N = 12)) | TEAE: Ophthalmic Migraine (200 mg QD (N = 12)) | TEAE: Pain In Extremity (200 mg QD (N = 12)) | TEAE: Pharyngitis (200 mg QD (N = 12)) | TEAE: Pneumonia (200 mg QD (N = 12)) | TEAE: Productive Cough (200 mg QD (N = 12)) | TEAE: Rash Maculo-Papular (200 mg QD (N = 12)) | TEAE: Seizure (200 mg QD (N = 12)) | TEAE: Sepsis (200 mg QD (N = 12)) | TEAE: Upper Respiratory Tract Infection (200 mg QD (N = 12))
3 (75.0) n (%): TEAE: Dehydration (100 mg QD (N = 4))
11 (91.7) n (%): Patients with Any TEAE (200 mg QD (N = 12))
0 n (%): TEAE: Abdominal Distension (100 mg QD (N = 4)) | TEAE: Acute Kidney Injury (100 mg QD (N = 4)) | TEAE: Adrenal Insufficiency (100 mg QD (N = 4)) | TEAE: Alopecia (100 mg QD (N = 4)) | TEAE: Anaemia (100 mg QD (N = 4)) | TEAE: Anxiety (100 mg QD (N = 4)) | TEAE: Arthralgia (100 mg QD (N = 4)) | TEAE: Axillary Vein Thrombosis (100 mg QD (N = 4)) | TEAE: Back Pain (100 mg QD (N = 4)) | TEAE: Breast Pain (100 mg QD (N = 4)) | TEAE: Constipation (100 mg QD (N = 4)) | TEAE: Cough (100 mg QD (N = 4)) | TEAE: Dizziness (100 mg QD (N = 4)) | TEAE: Dysgeusia (100 mg QD (N = 4)) | TEAE: Dyspnoea (100 mg QD (N = 4)) | TEAE: Dysuria (100 mg QD (N = 4)) | TEAE: Eructation (100 mg QD (N = 4)) | TEAE: Flatulence (100 mg QD (N = 4)) | TEAE: Fracture (100 mg QD (N = 4)) | TEAE: Fungal Infection (100 mg QD (N = 4)) | TEAE: Haematoma (100 mg QD (N = 4)) | TEAE: Hyperglycaemia (100 mg QD (N = 4)) | TEAE: Hypokalaemia (100 mg QD (N = 4)) | TEAE: Hypotension (100 mg QD (N = 4)) | TEAE: Influenza Like Illness (100 mg QD (N = 4)) | TEAE: Lower Respiratory Tract Congestion (100 mg QD (N = 4)) | TEAE: Lymphocyte Count Decreased (100 mg QD (N = 4)) | TEAE: Muscle Spasm (100 mg QD (N = 4)) | TEAE: Muscular Weakness (100 mg QD (N = 4)) | TEAE: Musculoskeletal Stiffness (100 mg QD (N = 4)) | TEAE: Nail Disorder (100 mg QD (N = 4)) | TEAE: Nasal Congestion (100 mg QD (N = 4)) | TEAE: Oedema Peripheral (100 mg QD (N = 4)) | TEAE: Ophthalmic Migraine (100 mg QD (N = 4)) | TEAE: Oral Pain (100 mg QD (N = 4)) | TEAE: Pain In Extremity (100 mg QD (N = 4)) | TEAE: Pharyngitis (100 mg QD (N = 4)) | TEAE: Platelet Count Decreased (100 mg QD (N = 4)) | TEAE: Pleural Effusion (100 mg QD (N = 4)) | TEAE: Productive Cough (100 mg QD (N = 4)) | TEAE: Rhinitis Allergic (100 mg QD (N = 4)) | TEAE: Seizure (100 mg QD (N = 4)) | TEAE: Sepsis (100 mg QD (N = 4)) | TEAE: Urinary Tract Infection (100 mg QD (N = 4)) | TEAE: Vaginal Haemorrhage (100 mg QD (N = 4)) | TEAE: Vomiting (100 mg QD (N = 4)) | related TEAE: Alopecia (100 mg QD (N = 4)) | related TEAE: Arthralgia (100 mg QD (N = 4)) | related TEAE: Constipation (100 mg QD (N = 4)) | related TEAE: Dysgeusia (100 mg QD (N = 4)) | related TEAE: Eructation (100 mg QD (N = 4)) | related TEAE: Fatigue (100 mg QD (N = 4)) | related TEAE: Flatulence (100 mg QD (N = 4)) | related TEAE: Hyperhidrosis (100 mg QD (N = 4)) | related TEAE: Nail Disorder (100 mg QD (N = 4)) | related TEAE: Platelet Count Decreased (100 mg QD (N = 4)) | related TEAE: Vomiting (100 mg QD (N = 4)) | TEAE: Abdominal Distension (200 mg QD (N = 12)) | TEAE: Acute Kidney Injury (200 mg QD (N = 12)) | TEAE: Alopecia (200 mg QD (N = 12)) | TEAE: Anxiety (200 mg QD (N = 12)) | TEAE: Basal Cell Carcinoma (200 mg QD (N = 12)) | TEAE: Confusional State (200 mg QD (N = 12)) | TEAE: Covid-19 Pneumonia (200 mg QD (N = 12)) | TEAE: Diarrhoea (200 mg QD (N = 12)) | TEAE: Dizziness (200 mg QD (N = 12)) | TEAE: Dysgeusia (200 mg QD (N = 12)) | TEAE: Dyspepsia (200 mg QD (N = 12)) | TEAE: Eructation (200 mg QD (N = 12)) | TEAE: Flatulence (200 mg QD (N = 12)) | TEAE: Fungal Infection (200 mg QD (N = 12)) | TEAE: Haematoma (200 mg QD (N = 12)) | TEAE: Hypotension (200 mg QD (N = 12)) | TEAE: Muscle Spasm (200 mg QD (N = 12)) | TEAE: Nail Disorder (200 mg QD (N = 12)) | TEAE: Oedema Peripheral (200 mg QD (N = 12)) | TEAE: Oral Pain (200 mg QD (N = 12)) | TEAE: Platelet Count Decreased (200 mg QD (N = 12)) | TEAE: Pleural Effusion (200 mg QD (N = 12)) | TEAE: Rhinitis Allergic (200 mg QD (N = 12)) | TEAE: Rib Fracture (200 mg QD (N = 12)) | TEAE: Tremor (200 mg QD (N = 12))
3 (25.0) n (%): Patients with Any Compound (1-g) related TEAE (200 mg QD (N = 12))
1 (25.0) n (%): TEAE: Abdominal Pain (100 mg QD (N = 4)) | TEAE: Basal Cell Carcinoma (100 mg QD (N = 4)) | TEAE: Confusional State (100 mg QD (N = 4)) | TEAE: Covid-19 Pneumonia (100 mg QD (N = 4)) | TEAE: Diarrhoea (100 mg QD (N = 4)) | TEAE: Dyspepsia (100 mg QD (N = 4)) | TEAE: Fall (100 mg QD (N = 4)) | TEAE: Fatigue (100 mg QD (N = 4)) | TEAE: Hot Flush (100 mg QD (N = 4)) | TEAE: Hyperhidrosis (100 mg QD (N = 4)) | TEAE: Insomnia (100 mg QD (N = 4)) | TEAE: Nausea (100 mg QD (N = 4)) | TEAE: Neutrophil Count Decreased (100 mg QD (N = 4)) | TEAE: Pneumonia (100 mg QD (N = 4)) | TEAE: Rash Maculo-Papular (100 mg QD (N = 4)) | TEAE: Rib Fracture (100 mg QD (N = 4)) | TEAE: Tremor (100 mg QD (N = 4)) | TEAE: Upper Respiratory Tract Infection (100 mg QD (N = 4)) | related TEAE: Diarrhea (100 mg QD (N = 4)) | related TEAE: Hot Flush (100 mg QD (N = 4)) | related TEAE: Nausea (100 mg QD (N = 4)) | related TEAE: Neutrophil Count Decreased (100 mg QD (N = 4)) | related TEAE: Tremor (100 mg QD (N = 4))
